Reference: patent US12600731B2, “Isoxazolo[5,4-H]quinazoline compounds as protein kinase inhibitors” (CHENGDU CYNOGEN BIO-PHARMACEUTICAL TECHNOLOGY CO., LTD., priority 2019, dated 2026)
Counter-ions that a name gives are not always drawn.

Columns and labels:
Assay type in all cases: biochemical
CDK4/cyclin D3 = CDK4/cyclin D3 (Homo sapiens, UniProt P11802); assay: Kinase activity assay, Caliper Mobility Shift Assay, CDK4/cyclin D3; conditions: 10 nM kinase, ATP 250 μM, 150 minutes at room temperature
Experimental: (§1) The inhibitory effect of compounds against the kinase CDK4/cyclin D3 was detected by Caliper Mobility Shift Assay method. The final concentration of the compounds to be tested was set at 10 concentrations starting from 1 μM by 3-fold serial dilution. 5 μL of compounds at 5-fold final concentration and 10 μL of CDK4/cyclin D3 kinase solution at a final concentration of 10 nM was added to a 384-well reaction plate, respectively. The plate was pre-incubated for 10 min at room temperature (with negative control wells containing 10 μL of kinase buffer and 5 μL of 5% DMSO; positive control wells containing 10 μL of kinase solution and 5 μL of 5% DMSO). The reaction was initiated by adding 10 μL of ATP at a final concentration of 250 μM and the corresponding substrate peptide mixture at room temperature for 150 minutes. 30 μL of stop detection solution containing EDTA was added to stop the kinase reaction. Caliper EZ Reader was used to read the conversion rate. Inhibition rate %=(average conversion rate of positive control %−conversion rate of sample %)/(average conversion rate of positive control %−average conversion rate of negative control %). wherein: negative control wells represent the conversion rate readings of wells without enzymatic activity; positive control wells represent conversion readings for wells with no compound inhibition. The log(inhibitor) vs. response—Variable slope of the analysis software GraphPad Prism 5 was used with log concentration value as the X-axis and the percent inhibition rate as the Y-axis to fit the dose-response curve, the IC50 value of each compound on the enzyme activity was thus obtained. Calculation formula: Y=Bottom+(Top−Bottom)/(1+10^((Log IC50−X)*HillSlope)).

CDK6/Cyclin D3 = CDK6/Cyclin D3 (Homo sapiens, UniProt Q00534); assay: Kinase activity assay, CDK6/Cyclin D3 (tested in a similar manner); conditions: tested in a similar manner to CDK4/cyclin D3
Experimental: as §1
(§2) The IC50 values for CDK6/Cyclin D3 and CDK2/Cyclin A2 of compounds of the present disclosure were tested in a similar manner.

CDK2/Cyclin A2 = CDK2/Cyclin A2 (Homo sapiens, UniProt P24941); assay: Kinase activity assay, CDK2/Cyclin A2 (tested in a similar manner); conditions: tested in a similar manner to CDK4/cyclin D3
Experimental: as §1, §2

Sequence of CDK6/Cyclin D3 (Q00534 whole entry, species assumed): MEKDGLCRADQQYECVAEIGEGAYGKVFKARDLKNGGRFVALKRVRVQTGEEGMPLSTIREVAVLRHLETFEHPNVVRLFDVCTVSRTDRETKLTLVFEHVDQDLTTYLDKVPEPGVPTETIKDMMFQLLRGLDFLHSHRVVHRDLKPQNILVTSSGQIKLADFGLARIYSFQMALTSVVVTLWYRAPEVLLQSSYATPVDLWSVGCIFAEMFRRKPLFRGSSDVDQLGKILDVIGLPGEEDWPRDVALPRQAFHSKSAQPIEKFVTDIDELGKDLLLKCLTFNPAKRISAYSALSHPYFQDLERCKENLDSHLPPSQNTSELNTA
Sequence of CDK6/Cyclin D3 (P30281 whole entry partner, species assumed): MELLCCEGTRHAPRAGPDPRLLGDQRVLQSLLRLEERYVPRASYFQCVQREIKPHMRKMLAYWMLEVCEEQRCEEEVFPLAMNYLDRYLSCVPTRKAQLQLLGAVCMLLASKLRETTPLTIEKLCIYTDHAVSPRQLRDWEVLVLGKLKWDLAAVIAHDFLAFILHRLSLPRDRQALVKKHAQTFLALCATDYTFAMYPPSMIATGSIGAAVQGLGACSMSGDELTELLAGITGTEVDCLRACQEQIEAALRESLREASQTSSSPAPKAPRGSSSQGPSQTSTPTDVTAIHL
Sequence of CDK4/cyclin D3 (P11802 whole entry, species assumed): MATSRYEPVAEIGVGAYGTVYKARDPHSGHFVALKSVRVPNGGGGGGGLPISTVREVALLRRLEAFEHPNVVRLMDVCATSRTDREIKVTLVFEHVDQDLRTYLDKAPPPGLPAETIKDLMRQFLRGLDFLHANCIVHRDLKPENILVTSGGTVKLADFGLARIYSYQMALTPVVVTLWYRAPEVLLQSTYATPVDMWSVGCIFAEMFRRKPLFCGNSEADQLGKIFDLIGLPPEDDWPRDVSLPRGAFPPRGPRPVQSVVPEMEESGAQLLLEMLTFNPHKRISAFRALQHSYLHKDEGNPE
Sequence of CDK4/cyclin D3 (P30281 whole entry partner, species assumed): as the sequence (P30281 whole entry partner, species assumed) above

| SMILES | IC50 (CDK4/cyclin D3) | IC50 (CDK6/Cyclin D3) | IC50 (CDK2/Cyclin A2) |
| --- | --- | --- | --- |
| CC(C)c1noc2ccc3cnc(Nc4ccc(N5CCNCC5)cc4)nc3c12 [Compound I-27, 9-isopropyl-N-(4-(piperazin-1-yl)phenyl)isoxazolo[5,4-H]quinazolin-2-amine] | 3 nM | 8 nM | 6 nM |
| CC(C)c1noc2ccc3cnc(Nc4ccc(N5CCOCC5)cc4)nc3c12 [Compound I-29, 9-isopropyl-N-(4-morpholinophenyl) isoxazolo[5,4-H]quinazolin-2-amine] | 14 nM | 36 nM | 10 nM |
| CC(C)CN1CCN(c2ccc(Nc3ncc4ccc5onc(C(C)C)c5c4n3)nc2)CC1 [Compound I-11, N-(5-(4-isobutylpiperazin-1-yl)pyridin-2-yl)-9-isopropylisoxazolo[5,4-H] quinazolin-2-amine] | 8 nM | 24 nM | – |
| CC(C)Cc1noc2ccc3cnc(Nc4ccc(N5CCNCC5)cn4)nc3c12 [Compound I-18, 9-isobutyl-N-(5-(piperazin-1-yl)pyridin-2-yl)isoxazolo[5,4-H]quinazolin-2-amine] | 6 nM | 32 nM | – |
| Cc1nc(Nc2ncc3ccc4onc(C(C)C)c4c3n2)ccc1N1CCNCC1 [Compound I-3, 9-isopropyl-N-(6-methyl-5-(piperazin-1-yl)pyridin-2-yl)isoxazolo[5,4-H] quinazolin-2-amine] | 8 nM | 36 nM | – |
| CC(C)c1noc2c1-c1nc(Nc3ccc(N4CCNCC4)cn3)ncc1CC2 [Compound I-24, 9-isopropyl-N-(5-(piperazin-1-yl)pyridin-2-yl)-5,6-dihydroisoxazolo[5,4-h]quinazolin-2-amine hydrochloride] | 13 nM | 82 nM | – |
| CC(C)c1noc2ccc3cnc(Nc4ccc(N5CCC(CCCO)CC5)cc4)nc3c12 [Compound I-30, 3-(1-(4-((9-isopropylisoxazolo[5,4-h]quinazolin-2-yl)amino)phenyl)piperidin-4-yl)propan-1-ol] | 100 nM | 245 nM | 140 nM |
| CC(C)c1noc2ccc3cnc(Nc4ccc(N5CCC(N(C)C)CC5)cn4)nc3c12 [Compound I-13, N-(5-(4-(dimethylamino)piperidin-1-yl)pyridin-2-yl)-9-isopropylisoxazolo [5,4-H]quinazolin-2-amine] | 4 nM | 12 nM | – |
| CC(C)c1noc2ccc3cnc(Nc4ccc(N5CCNCC5)c(F)c4)nc3c12 [Compound I-33, N-(3-fluoro-4-(piperazin-1-yl)phenyl)-9-isopropylisoxazolo[5,4-H] quinazolin-2-amine] | 3 nM | 7 nM | 10 nM |
| CC(C)c1noc2ccc3cnc(Nc4ccc(C5CCNCC5)cn4)nc3c12 [Compound I-14, 9-isopropyl-N-(5-(piperidin-4-yl)pyridin-2-yl)isoxazolo[5,4-H] quinazolin-2-amine] | 4 nM | 10 nM | – |
| CC(C)c1noc2ccc3cnc(Nc4ccc(N5CCNCC5)cn4)nc3c12 [Compound I-1, 9-isopropyl-N-(5-(piperazin-1-yl)pyridin-2-yl)isoxazolo[5,4-H]quinazolin-2-amine hydrochloride] | 2 nM | 7 nM | – |
| CC(C)c1noc2ccc3cnc(Nc4ccc(N5CCOCC5)cc4F)nc3c12 [Compound I-32, N-(2-fluoro-4-morpholinophenyl)-9-isopropylisoxazolo[5,4-h] quinazolin-2-amine] | 150 nM | 359 nM | 294 nM |
| CC(C)c1noc2ccc3cnc(Nc4ccc(N5CCN(C)CC5)c(F)c4)nc3c12 [Compound I-34] | 3 nM | 9 nM | 12 nM |
| Cc1cc(Nc2ncc3ccc4onc(C(C)C)c4c3n2)ncc1N1CCNCC1 [Compound I-2, 9-isopropyl-N-(4-methyl-5-(piperazin-1-yl)pyridin-2-yl)isoxazolo[5,4-H] quinazolin-2-amine] | 6 nM | 23 nM | – |
| CCN1CCN(c2ccc(Nc3ncc4ccc5onc(C(C)C)c5c4n3)cc2)CC1 [Compound I-28, N-(4-(4-ethylpiperazin-1-yl)phenyl)-9-isopropylisoxazolo[5,4-h] quinazolin-2-amine] | 2 nM | 5 nM | 4 nM |
| CC(C)c1noc2c1-c1nc(Nc3ccc(N4CCOCC4)cn3)ncc1CC2 [Compound I-26, 9-isopropyl-N-(5-morpholinopyridin-2-yl)-5,6-dihydroisoxazolo[5,4-H] quinazolin-2-amine] | 63 nM | 276 nM | – |
| COc1cc(N2CCN(C)CC2)ccc1Nc1ncc2ccc3onc(C(C)C)c3c2n1 [Compound I-31, 9-isopropyl-N-(2-methoxy-4-(4-methylpiperazin-l-yl)phenyl)isoxazolo [5,4-H]quinazolin-2-amine] | 98 nM | 340 nM | 244 nM |
| CN1CCN(c2ccc(Nc3ncc4ccc5onc(C6CCCC6)c5c4n3)nc2)CC1 [Compound I-23, 9-cyclopentyl-N-(5-(4-methylpiperazin-1-yl)pyridin-2-yl)isoxazolo[5,4-H]quinazolin-2-amine] | 5 nM | 15 nM | – |
| c1cc(Nc2ncc3ccc4onc(C5CCCC5)c4c3n2)ncc1N1CCNCC1 [Compound I-22, 9-cyclopentyl-N-(5-(piperazin-1-yl)pyridin-2-yl)isoxazolo[5,4-H] quinazolin-2-amine] | 7 nM | 21 nM | – |
| CC(C)Cc1noc2ccc3cnc(Nc4ccc(N5CCOCC5)cn4)nc3c12 [Compound I-21, 9-isobutyl-N-(5-morpholinopyridin-2-yl)isoxazolo[5,4-H]quinazolin-2-amine] | 47 nM | 245 nM | – |

The next lines start with the values.

| IC50 (CDK4/cyclin D3) | IC50 (CDK6/Cyclin D3) | IC50 (CDK2/Cyclin A2) | SMILES |
| --- | --- | --- | --- |
| 2 nM | 7 nM | 12 nM | CC(C)c1noc2ccc3cnc(Nc4ccc(N(CCN5CCOCC5)S(C)(=O)=O)cc4)nc3c12 [Compound I-41, N-(4-((9-isopropylisoxazolo[5,4-H]quinazolin-2-yl)amino)phenyl)-N-(2-morpholinoethyl) methanesulfonamide] |
| 3 nM | 9 nM | 5 nM | CC(C)c1noc2ccc3cnc(Nc4ccc(C(=O)N5CCNCC5)cc4)nc3c12 [Compound I-42, (4-((9-isopropylisoxazolo[5,4-H]quinazolin-2-yl)amino)phenyl) (piperazin-1-yl)methanone] |
| 2 nM | 6 nM | 10 nM | CC(C)c1noc2ccc3cnc(Nc4cccc(S(N)(=O)=O)c4)nc3c12 [Compound I-40, 3-((9-isopropylisoxazolo[5,4-h]quinazolin-2-yl)amino)benzenesulfonamide] |
| 2 nM | 4 nM | 10 nM | CC(C)c1noc2ccc3cnc(Nc4ccc(OCCN(C)C)cc4)nc3c12 [Compound I-44, N-(4-(2-(dimethylamino)ethoxy)phenyl)-9-isopropylisoxazolo[5,4-h]quinazolin-2-amine] |
| 3 nM | 8 nM | 10 nM | CCN1CCN(c2ccc(Nc3ncc4ccc5onc(C(C)C)c5c4n3)cc2F)CC1 [Compound I-35, N-(4-(4-ethylpiperazin-1-yl)-3-fluorophenyl)-9-isopropylisoxazolo[5,4-H]quinazolin-2-amine] |
| 7 nM | 21 nM | 10 nM | CC(C)c1noc2c1-c1nc(Nc3ccc(N4CCNCC4)c(F)c3)ncc1CC2 [Compound I-38, N-(3-fluoro-4-(piperazin-1-yl)phenyl)-9-isopropyl-5,6-dihydroisoxazolo[5,4-H] quinazolin-2-amine] |
| 34 nM | 68 nM | 82 nM | COc1ccc2cc(Nc3ncc4ccc5onc(C(C)C)c5c4n3)ccc2n1 [Compound I-37, 9-isopropyl-N-(2-methoxyquinolin-6-yl)isoxazolo[5,4-H]quinazolin-2-amine] |
| 20 nM | 34 nM | 22 nM | CC(C)c1noc2ccc3cnc(Nc4ccc(N5CCOCC5)c(F)c4)nc3c12 [Compound I-36, N-(3-fluoro-4-morpholinophenyl)-9-isopropylisoxazolo[5,4-H] quinazolin-2-amine] |
| 1 nM | 5 nM | 4 nM | CC(C)c1noc2ccc3cnc(Nc4ccc(C(=O)N5CCN(C)CC5)cc4)nc3c12 [Compound I-43, (4-((9-isopropylisoxazolo[5,4-H]quinazolin-2-yl)amino)phenyl) (4-methylpiperazin-1-yl)methanone] |
| 6 nM | 17 nM | 11 nM | CC(C)c1noc2c1-c1nc(Nc3ccc(N4CCN(C)CC4)c(F)c3)ncc1CC2 [Compound I-39, N-(3-fluoro-4-(4-methylpiperazin-1-yl)phenyl)-9-isopropyl-5,6-dihydroisoxazolo[5,4-H]quinazolin-2-amine] |
